Data on six compounds can be found in US11918597B2, “Triple combination therapies for anti-aging” (LUNELLA BIOTECH, INC., priority 2018, dated 2024).

For one series, the system named is CSCs. The experiment in a line: CSC propagation / CSC inhibition activity (cell line not stated). Type of series: cell-based.
Another series deals with U937 cells. Conditions: 15 minutes, media containing 3 μM Vitamin C; cited from earlier work.
For another series, the system named is rat heart. To be noted: conditions of hypoxia, Vitamin C alone; cited from earlier work.
For series [1], the system named is MCF7 cells. The experiment in a line: Metabolic flux analysis (Seahorse XFe96, OCR and ECAR). Type of series: cell-based, human. Conditions: MCF7 monolayers pre-treated 3-days, doxycycline 1 μM, azithromycin 1 μM, Vitamin C 250 μM as applicable.
Method: Metabolic Flux Analysis: Real-time oxygen consumption rates (OCR) and extracellular acidification rates (ECAR) rates in MCF7 cells were determined using the Seahorse Extracellular Flux (XFe96) analyzer (Seahorse Bioscience, USA). Briefly, 1.5×10^4 cells per well were seeded into XFe96 well cell culture plates, and incubated overnight to allow cell attachment. Then, cells were treated with antibiotics for 72 h. Vehicle-alone control cells were processed in parallel. After 72 hours of incubation, cells were washed in pre-warmed XF assay media (or for OCR measurement, XF assay media supplemented with 10 mM glucose, 1 mM Pyruvate, 2 mM L-glutamine and adjusted at 7.4 pH). Cells were then maintained in 175 μL/well of XF assay media at 37° C., in a non-CO2 incubator for 1 hour. During the incubation time, we loaded 25 μL of 80 mM glucose, 9 μM oligomycin, and 1M 2-deoxyglucose (for ECAR measurement) or 10 μM oligomycin, 9 μM FCCP, 10 μM rotenone, 10 μM antimycin A (for OCR measurement), in XF assay media into the injection ports in the XFe96 sensor cartridge. Measurements were normalized by protein content (Bradford assay). Data sets were analyzed using XFe96 software and GraphPad Prism software, using one-way ANOVA and Student's t-test calculations. All experiments were performed in quintuplicate, three times independently.
For series [2] the following is noted: oral administration; cited from earlier work.
In series [3] the test system is MCF7 cells. The experiment in a line: Mammosphere formation assay (CSC propagation). Format: cell-based, human. To be noted: for inhibition at 250 µM: suspension treatment 5-days, doxycycline 1 μM, azithromycin 1 μM, Vitamin C 250 μM, read-out: MFE (% Inhibition ± SD); for IC50: MCF7 cells (FIG. 15), read-out: half maximal inhibitory concentration (IC50), mammosphere assay. On the procedure:
The following paragraphs discuss laboratory data and analysis for select embodiments of the present approach. Doxycycline and azithromycin were tested alone and in combination at low concentrations to evaluate the resulting inhibitory effect on mammosphere formation. FIGS. 1A-1C summarize mammosphere formation data for varying concentrations and combinations.
The temporal effects of pre-treatment on the efficacy of the present approach have been evaluated in the pre-clinical setting, using CSC propagation as the measurement. […] This may be due to MCF7 cells' ability to induce oxidative stress, driving an anti-oxidant response. Given these […] results, it appears embodiments of the present approach that simultaneously co-administer all three therapeutic agents appear to have the most significant impact on the CSC population, and are preferred. […] However, some embodiments may call for administering therapeutic agents within a narrow window, such as 1-3 hours, over multiple days (e.g., 3-7 days in some embodiments, 4-14 days in some embodiments). The antibiotics may be administered in oral form (e.g., pill or tablet), while the Vitamin C is administered intravenously in some embodiments. In others, all three therapeutic agents may be administered orally, either as separate pills or tabs, or as a single concoction containing each therapeutic agent.
Mammosphere Formation Assay: A single cell suspension was prepared using enzymatic (lx Trypsin-EDTA, Sigma Aldrich, #T3924), and manual disaggregation (25 gauge needle). Cells were plated at a density of 500 cells/cm2 in mammosphere medium (DMEM-F12+B27+20 ng/ml EGF+PenStrep) under non-adherent conditions, in culture dishes pre-coated with (2-hydroxyethylmethacrylate) (poly-HEMA, Sigma, #P3932), called “tumor-sphere plates”. Vehicle alone (DMSO) control cells were processed in parallel. Cells were grown for 5 days and maintained in a humidified incubator at 37° C. After 5 days of culture, 3D mammospheres >50 μm were counted using an eye piece (“graticule”), and the percentage of cells plated which formed spheres was calculated and is referred to as percent mammosphere formation (MFE, and was normalized to one (1=100% MSF).

In the next series the test system is senescent fibroblasts. The experiment in a line: Senolytic activity on senescent fibroblasts. Type of series: cell-based. To be noted: azithromycin by itself. From the text: Embodiments of the present approach also have implications for improving health-span and life-span. Azithromycin, by itself, is an FDA-approved drug with remarkable senolytic activity that targets and removes senescent fibroblasts, such as myo-fibrobasts. This senolytic activity has considerable efficiency, approaching nearly 97%. The accumulation of pro-inflammatory senescent cells is thought to be the primary cause of many aging-associated diseases, such as heart disease, diabetes, dementia and cancer, for example. Since cancer-associated fibroblasts (CAFs) are senescent myo-fibroblasts, with tumor promoting activity, triple combination embodiments of the present approach with Azithromycin may also effectively target the glycolytic tumor stroma of aggressive and metastatic cancers, especially those bearing the metabolic hallmarks of the “Reverse Warburg Effect.” In some embodiments, the composition prevents acquisition of a senescence-associated secretory phenotype. In some embodiments, the composition facilitates tissue repair and regeneration. In some embodiments, the composition increases at least one of organismal life-span and health-span.

In a further series the test system is senescent MRC-5 cells. Kind of series: BrdU-induced senescence senolytic assay (SRB / xCELLigence). Conditions: BrdU-treated MRC-5 fibroblasts; even at concentrations as low as 25 μM. Format: cell-based, human. On the procedure:
(§1) Bromodeoxyuridine (5-bromo-2′-deoxyuridine), also known as BrdU, was used to induce senescence. BrdU is an analog of the nucleoside thymidine commonly used to identify proliferating cells. BrdU induces controlled DNA damage, and drives cells towards senescence with high efficiency. The BrdU assay of the present approach calls for subjecting normal fibroblasts to prolonged culture (8-days) in the presence of BrdU at 100 μM to induce controlled DNA-damage and senescence. […] Then, isogenically-matched cultures of normal and senescent fibroblasts may be used for drug screening to identify drugs having senolytic activity. Senolytic activity may be detected using the sulforhodamine B assay, also known in the art as the SRB assay. This assay measures the amount of protein remaining attached to the tissue-culture dishes, and is a surrogate marker for cell viability. This approach may be used to rapidly screen compounds, including clinically-approved drugs, such as, for example, antibiotics. For example, in embodiments described herein, the present approach was used to screen erythromycin family members, including azithromycin and roxithromycin, among other compounds and conjugates. It should be appreciated that the present approach may be used to screen other compounds.

The subject of a further series is bulk BJ cells. The experiment in a line: Cell viability, bulk BJ cells. Format: cell-based, human. Conditions: bulk BJ cells (normal fibroblasts); range of concentrations, up to 20 μM. On the procedure: as §1, with “For example, in embodiments described herein, the present approach was used to screen erythromycin family members, including azithromycin and roxithromycin, among other compounds and conjugates. It should be appreciated that the present approach may be used to screen other compounds.” left out
Embodiments of therapeutic agents conjugated with targeting signals have shown less toxicity in bulk cancer cells and normal fibroblasts compared to unconjugated therapeutic agents. […] The data represents cell viability expressed as a percentage of a control. […]

For another series, the system named is bulk MCF7 cells. Kind of series: Cell viability, bulk MCF7 cells. Format: cell-based, human. To be noted: range of concentrations, up to 20 μM. From the text: Embodiments of therapeutic agents conjugated with targeting signals have shown less toxicity in bulk cancer cells and normal fibroblasts compared to unconjugated therapeutic agents. For example, FIGS. 17A and 17B show cell viability data for doxycycline and the doxycycline-myristate conjugate shown as compound [1], for bulk MCF7 cells and bulk BJ cells, respectively. The data represents cell viability expressed as a percentage of a control. […] Similar behavior has been seen in other therapeutic agents conjugated with targeting signals.

Structures are written as SMILES. Like-named read-outs stand apart in the source and are kept apart here.

With `CCCCCCCCCCCCCC(=O)N(C)[C@H]1C[C@@H](C)O[C@@H](O[C@@H]2[C@@H](C)[C@H](O[C@H]3C[C@@](C)(OC)[C@@H](O)[C@H](C)O3)[C@@H](C)C(=O)O[C@H](CC)[C@@](C)(O)[C@H](O)[C@@H](C)N(C)C[C@H](C)C[C@@]2(C)O)[C@@H]1O` [Compound [15]], in the series with CSCs, the “potency for CSCs compared to azithromycin alone” value is given as “improved” and the “selectivity for CSCs compared to azithromycin alone” value was “improved”.

For `O=C1O[C@H]([C@@H](O)CO)C(O)=C1O` [Vitamin C, Ascorbic Acid], in the series with U937 cells, the “Vitamin C level reached in the mitochondria” value is recorded as 5 mM. Also, the “increase of mitochondrial ATP production” value in the series on rat heart is recorded as “up to 1.5 fold”. Moreover, in the series on MCF7 cells [1], the “ATP production / ATP levels” value is given as “significantly increased”; the “basal and maximal respiration” value is “significantly increased”; the “glycolysis / glycolytic function (ECAR)” value is “significantly increased”; the glycolytic reserve entry was “significantly increased”. In addition, in the series on MCF7 cells [1], the glycolytic reserve capacity result is reported as “decreasing” and the “oxidative mitochondrial metabolism (OCR, mitochondrial oxygen consumption)” value is “significantly increased”. In the series on MCF7 cells [1] (listed as low-dose Vitamin C), the “ATP production / ATP levels” value is “increased”; the “basal and maximal respiration” value is recorded as “increased”; the “glycolysis / glycolytic function (ECAR)” value was “increased”; the “oxidative mitochondrial metabolism (OCR, mitochondrial oxygen consumption)” value is recorded as “increases”. In addition, the “peak Vitamin C concentration in blood/serum/plasma” value in series [2] was “about 250 μM”. Also, the inhibition at 250 µM with MCF7 cells [3] (Homo sapiens, MCF7, Monolayer pre-treatment D + A 7-days) was 39.1%. The inhibition at 250 µM in the series with MCF7 cells [3] (Homo sapiens, MCF7, Monolayer pre-treatment Vit C 7-days) is 49.2%.

In the case of `CC[C@H]1OC(=O)[C@H](C)[C@@H](O[C@H]2C[C@@](C)(OC)[C@@H](O)[C@H](C)O2)[C@H](C)[C@@H](O[C@@H]2O[C@H](C)C[C@H](N(C)C)[C@H]2O)[C@](C)(O)C[C@@H](C)CN(C)[C@H](C)[C@@H](O)[C@]1(C)O` [azithromycin], the “senolytic activity, efficiency of removing senescent fibroblasts” value in the series on senescent fibroblasts was roughly 97%. For the same compound, the “inhibition of mammosphere formation” value in the series on MCF7 cells [3] (alone at low concentrations (0.1 μM and 1 μM)) was “little or no effect”.

Turning to `CCCCCCCCCCCCCC(=O)N(C)[C@H]1C[C@@H](C)O[C@@H](O[C@@H]2[C@@H](C)[C@H](O[C@@H]3C[C@@](C)(OC)[C@@H](O)[C@H](C)O3)[C@@H](C)C(=O)O[C@H](CC)[C@@](C)(O)[C@H](O)[C@@H](C)N(C)C[C@H](C)C[C@@]2(C)O)[C@@H]1O` [azithromycin—fatty acid conjugate, N-[(2S,3R,4S,6R)-2-[ [(2R,3S,4R,5R,8R,10R,11R,12S,13S,14R)-2-ethyl-3,4,10-trihydroxy-13-[(2S,4R,5S,6S)-5-hydroxy-4-methoxy-4,6-dimethyl-tetrahydropyran-2-yl]oxy-3,5,6,8,10,12,14-heptamethyl-15-oxo-1-oxa-6-azacyclopentadec-11-yl]oxy]-3-hydroxy-6-methyl-tetrahydropyran-4-yl]-N-methyl-tetradecanamide], the “senescent MRC-5 cells targeted (final cell index after 5 days, xCELLigence)” value with senescent MRC-5 cells was roughly 100%.

Consider `CCCCCCCCCCCCCC(=O)Nc1ccc2c(c1O)C(=O)C1=C(O)[C@]3(O)C(=O)C(C(N)=O)=C(O)[C@@H](N(C)C)C3[C@@H](O)C1[C@H]2C` (stereo partly drawn) [doxycycline-myristate conjugate, (4S,5S,6R,12aS)-4-(dimethylamino)-3,5,10,12,12a-pentahydroxy-6-methyl-1,11-dioxo-9-(tetradecanoylamino)-4a,5,5a,6-tetrahydro-4H-tetracene-2-carboxamide], for which the “toxicity (cell viability as percentage of control)” value in the series on bulk BJ cells and in the series on bulk MCF7 cells was “less toxic than doxycycline” each time. Also, the “CSC inhibition activity compared with the unconjugated antibiotic” value with CSCs (fatty acid moiety is myristate (n is 12)) is “better CSC inhibitory properties”. In addition, the inhibition at 2.5 µM in the series with MCF7 cells [3] (Homo sapiens, MCF7, 2.5 μM, read-out: inhibition of MCF7 mammosphere formation relative to the control) lay in the range of 40 to 60%. The IC50 with MCF7 cells [3] (Homo sapiens) worked out at 3.46 µM. Moreover, in the series with MCF7 cells [3] (MCF7, 1.5 μM, 3 μM, 6 μM, 12 μM), the “potency in mammosphere assay compared with doxycycline (FIG. 14)” value is on record as “more potent than unconjugated doxycycline”.

As to `C[C@H]1c2cccc(O)c2C(=O)C2=C(O)[C@]3(O)C(=O)C(C(N)=O)=C(O)[C@@H](N(C)C)[C@@H]3[C@@H](O)[C@@H]21` [doxycycline], the IC50 with MCF7 cells [3] (Homo sapiens) worked out at 18.1 µM.

For orientation: inhibition means the percentage by which the read-out fell short of the control.
